Measurements taken from the NIST ThermoML archive (doi:10.1016/j.jct.2006.01.009).

Tests used:
[1] = 308.15 K, 101 kPa, Liquid; for speed of sound: Linear variable-path acoustic interferometer
[2] = xn = mol fraction of the nth substance listed; settings: 308.15 K, 101 kPa, Liquid; for speed of sound: Linear variable-path acoustic interferometer

CC(=O)c1ccccc1 [acetophenone]
[1]
Settings	mass density [kg/m3]	speed of sound [m/s]
–	1020	1445

CC#N [acetonitrile] + CC(=O)c1ccc(C)cc1
[2], x2 = 0
Settings	mass density [kg/m3]	speed of sound [m/s]
–	770.6	1239

CC#N [acetonitrile] + CC(=O)c1ccc(Cl)cc1
[2], x2 = 0
Settings	mass density [kg/m3]	speed of sound [m/s]
–	770.6	1239

CC(=O)c1ccc(C)cc1 [4'-methylacetophenone]
[1]
Settings	mass density [kg/m3]	speed of sound [m/s]
–	996.3	1438

CC#N [acetonitrile] + CC(=O)c1ccccc1
[2], x2 = 0
Settings	mass density [kg/m3]	speed of sound [m/s]
–	770.6	1239

CCC(=O)c1ccccc1 [ethyl phenyl ketone] + CC#N
[2]
Settings	mass density [kg/m3]	speed of sound [m/s]
x1 = 0.0418	793.4	1250
x1 = 0.0922	817.8	1264
x1 = 0.1459	841.2	1279
x1 = 0.2084	864.9	1296
x1 = 0.2864	889.8	1314
x1 = 0.3757	913.6	1335
x1 = 0.4796	936	1357
x1 = 0.6093	957.5	1381
x1 = 0.7791	978.6	1406
x1 = 1	1000.6	1432

CC(=O)c1ccc(Cl)cc1 [4'-chloroacetophenone] + CC#N
[2]
Settings	mass density [kg/m3]	speed of sound [m/s]
x1 = 0.092	857.2	1256
x1 = 0.1488	900.3	1266
x1 = 0.2128	941.5	1278
x1 = 0.2863	982.6	1292
x1 = 0.3792	1025.8	1310
x1 = 0.4876	1077.5	1330
x1 = 0.6196	1106.9	1350
x1 = 0.7847	1145	1372
x1 = 1	1181.3	1390

CC#N [acetonitrile]
[1]
Settings	mass density [kg/m3]	speed of sound [m/s]
–	770.6	1239

CC(=O)c1ccccc1 [acetophenone] + CC#N
[2]
Settings	mass density [kg/m3]	speed of sound [m/s]
x1 = 0.048	796.8	1254
x1 = 0.1023	823.3	1268
x1 = 0.1626	849.3	1284
x1 = 0.2321	874.7	1303
x1 = 0.3113	900	1327
x1 = 0.4024	924.7	1351
x1 = 0.5125	949.3	1374
x1 = 0.6426	972.2	1395
x1 = 0.8018	995.6	1417
x1 = 1	1020	1445

CCC(=O)c1ccccc1 [ethyl phenyl ketone]
[1]
Settings	mass density [kg/m3]	speed of sound [m/s]
–	1000.6	1432

CC(=O)c1ccc(C)cc1 [4'-methylacetophenone] + CC#N
[2]
Settings	mass density [kg/m3]	speed of sound [m/s]
x1 = 0.0872	816	1272
x1 = 0.1449	841.6	1288
x1 = 0.2088	865.3	1305
x1 = 0.2823	888.1	1323
x1 = 0.3756	912.4	1344
x1 = 0.4771	934	1365
x1 = 0.6125	955.6	1389
x1 = 0.7811	976.1	1413
x1 = 1	996.3	1438

CC#N [acetonitrile] + CCC(=O)c1ccccc1
[2], x2 = 0
Settings	mass density [kg/m3]	speed of sound [m/s]
–	770.6	1239

CC(=O)c1ccc(Cl)cc1 [4'-chloroacetophenone]
[1]
Settings	mass density [kg/m3]	speed of sound [m/s]
–	1181.3	1390
